Entries after “also recorded” stand apart in the source; their conditions may differ.
Legend:
spinal cord injury [1] = assay: Weight-drop spinal cord injury, TUNEL-positive cells surrounding the lesion; format: in vivo, rat; settings: 1 mM, 2 μl injected locally into the peri-traumatic zone immediately prior to impact; 24 hrs
Experimental: (§1) Adult female Spague-Dawley rats (220-250 g) were anesthetized with pentobarbital (50 mg/kg i.p.). When unresponsive, a double level laminectomy was performed at the T11 and T12 vertebrae. […] The tip of the rod was reduced to 1 mm to avoid direct traumatic injury of the dorsal venous complex. ATP and agonists (10 mM, 2 μl) were stereotaxically injected into T12 just lateral to the dorsal horn. All agents were purchased from Sigma.
The rats were anesthetized with ketamine (60 mg/kg) and xylazine (10 mg/kg). After 12 hours post-fixation, the spinal cord is cryoprotected in 30% sucrose and cut in serial 20 μm para-saggital sections. Myelin was visualized with Luxol fast blue (Basso et al., “A Sensitive and Reliable Locomotor Rating Scale for Open Field Testing in Rats,” J Neurotrauma 12:1-21 (1995) and Nedergaard et al., “Characterization of Cortical Depolarization Evoked in Focal Cerebral Ischemia,” J Cereb Blood Flow Metab 13:568-574 (1993), which are hereby incorporated by reference in their entirety)). […] Immunofluorescence was visualized using confocal microscopy (BioRad MRC1024) and images analyzed by Metamorph software (Universal Imaging Corp.).
It was next determined whether OxATP protected against cell death in the area of high ATP release following spinal cord injury. […]

P2X7 receptors [2] = molecular target: T1, P2X7 receptors (Rattus norvegicus, UniProt Q64663); assay: Current clamp recording of spiking in spinal cord neurons (slices); settings: for effect on BzATP-induced increase in spike rate (FIG. 4 legend): BzATP 100 μM, OxATP 100 μM, NBQX 10 μM and CPP 5 μM applied combined; for spiking (action potential firing) of spinal cord neurons: 100 μM, current clamp
T1 sequence (Q64663 1-595): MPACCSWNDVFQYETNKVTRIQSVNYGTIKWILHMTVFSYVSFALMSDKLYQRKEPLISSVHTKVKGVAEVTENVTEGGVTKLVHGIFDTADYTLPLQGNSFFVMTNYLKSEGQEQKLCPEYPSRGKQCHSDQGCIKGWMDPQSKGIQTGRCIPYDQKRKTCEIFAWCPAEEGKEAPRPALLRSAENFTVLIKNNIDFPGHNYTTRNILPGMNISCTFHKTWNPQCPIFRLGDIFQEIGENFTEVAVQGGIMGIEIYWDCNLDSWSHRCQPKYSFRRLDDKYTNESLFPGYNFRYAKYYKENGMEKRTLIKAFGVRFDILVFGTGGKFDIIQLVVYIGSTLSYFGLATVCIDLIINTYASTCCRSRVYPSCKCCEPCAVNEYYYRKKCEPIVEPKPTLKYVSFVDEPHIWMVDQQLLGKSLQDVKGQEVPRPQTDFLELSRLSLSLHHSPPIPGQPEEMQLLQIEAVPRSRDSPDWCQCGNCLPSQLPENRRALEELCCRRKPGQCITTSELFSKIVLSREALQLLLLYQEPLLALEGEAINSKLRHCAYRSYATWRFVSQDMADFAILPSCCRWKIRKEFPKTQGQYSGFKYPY

spinal cord injury [3] = assay: Weight-drop spinal cord injury, BBB open field locomotor rating scale; format: in vivo, rat; settings: 1 mM, 2 μl local pretreatment; n=14
Experimental: as §1
The animals were evaluated daily for 2 weeks after injury and later on a biweekly basis.
It was next determined whether OxATP protected against cell death in the area of high ATP release following spinal cord injury. OxATP (1 mM, 2 μl) was injected locally into the peri-traumatic zone immediately prior to impact. […] The BBB open field locomotor rating scale was used to evaluate recovery of rats receiving OxATP versus vehicle treated control.

non-injured spinal cord = assay: Injection of ATP or ATP analogs into the non-injured spinal cord, TUNEL staining; format: in vivo, rat; settings: 10 mM, 2 μl injected just lateral to the dorsal horn, 24 hrs later
Experimental: as §1
The rats were anesthetized with ketamine (60 mg/kg) and xylazine (10 mg/kg). After 12 hours post-fixation, the spinal cord is cryoprotected in 30% sucrose and cut in serial 20 μm para-saggital sections. Myelin was visualized with Luxol fast blue (Basso et al., “A Sensitive and Reliable Locomotor Rating Scale for Open Field Testing in Rats,” J Neurotrauma 12:1-21 (1995) and Nedergaard et al., “Characterization of Cortical Depolarization Evoked in Focal Cerebral Ischemia,” J Cereb Blood Flow Metab 13:568-574 (1993), which are hereby incorporated by reference in their entirety)). Immunohistochemistry and TUNEL staining were performed as described in (Lin et al., “Gap-Junction-Mediated Propagation and Amplification of Cell Injury,” Nat Neurosci 1:494-500 (1998); Lin et al., “Connexin Mediates Gap Junction-Independent Resistance to Cellular Injury,” J Neurosci 23:430-441 (2003); and Takano et al., “Glutamate Release Promotes Growth of Malignant Glioma,” Nat Med 7:1010-1015 (2001), which are hereby incorporated by reference in their entirety)). Immunofluorescence was visualized using confocal microscopy (BioRad MRC1024) and images analyzed by Metamorph software (Universal Imaging Corp.).
It was then determined whether increased extracellular ATP in itself, in the non-injured spinal cord, was sufficient for induction of cell death. ATP or ATP analogs, all in a concentration of 10 mM (2 μl), were injected into the spinal cord just lateral to the dorsal horn. A large number of TUNEL-positive cells were present 24 hrs later in both gray and white matter (FIG. 2F). […] These observations indicate that raising extracellular ATP concentration is sufficient for induction of cell death in the non-injured spinal cord. In this regard, P2X7 receptors are expressed by most immune cells and their activation leads to multiple downstream events, including cell permeabilization and apoptosis (Chow et al., “Purines and Their Roles in Apoptosis,” Neuropharmacology 36:1149-1156 (1997) and Di Virgilio et al., “Cytolytic P2X Purinoceptors,” Cell Death Differ 5:191-199 (1998), which are hereby incorporated by reference in their entirety)).

P2X7 receptors [4] = molecular target: T1, P2X7 receptors; assay: Two-photon calcium imaging (fluo-4) of neurons in spinal cord slices; settings: 100 μM; for cytosolic calcium concentration (fluo-4 emission) during bath application: 20 min agonist exposure, spinal cord slices

For `Nc1ncnc2c1ncn2[C@@H](C=O)O[C@@H](C=O)COP(=O)(O)OP(=O)(O)OP(=O)(O)O` [OxATP, oxidized ATP], the “number of TUNEL positive cells surrounding the lesion versus vehicle controls” value (spinal cord injury [1]) was “highly significant reduction”, the “effect on BzATP-induced increase in spike rate (FIG. 4 legend)” value (from here on “effect on BzATP-induced increase”) (P2X7 receptors [2]) was “prevented BzATP-induced increase in spike rate” and the “effect on agonist-increased spiking activity” value (P2X7 receptors [2]; pretreatment, OxATP 300 μM, ATP or BzATP 100 μM) was “attenuated”. The “BBB score difference versus vehicle, first week of recovery” value (spinal cord injury [3]) was 2-4 points and the “functional recovery (BBB) versus vehicle-treated controls” value (spinal cord injury [3]) was “significant improved recovery”.
With NBQX the “effect on BzATP-induced increase” value (P2X7 receptors [2]) was “no significant effect”.
For `O=C(O)C1CN(CCCP(=O)(O)O)CCN1` (stereo not shown) [CPP], the “effect on BzATP-induced increase” value (P2X7 receptors [2]) was “no significant effect”.
With `CSc1nc(N)c2ncn([C@@H]3O[C@H](COP(=O)(O)OP(=O)(O)OP(=O)(O)O)[C@@H](O)[C@H]3O)c2n1` [2MeSATP] the “apoptosis (TUNEL-positive cells) after injection into spinal cord” value (“apoptosis (TUNEL-positive cells)” for short) (non-injured spinal cord) was “not associated with significant injury”.
In the case of `Nc1ncnc2c1ncn2[C@@H]1O[C@H](COP(=O)(O)OP(=O)(O)OP(=O)(O)O)[C@@H](O)[C@H]1O` [ATP], the “cytosolic calcium concentration (fluo-4 emission) during bath application” value (P2X7 receptors [4]) is reported as “sustained increase in cytosolic calcium concentration”, the “apoptosis (TUNEL-positive cells)” value (non-injured spinal cord) is reported as “induced a significant extent of apoptosis” and the “spiking (action potential firing) of spinal cord neurons” value (P2X7 receptors [2]) is reported as “increase spiking rate; also recorded: induced high frequency spiking”.
In the case of BzATP, the “cytosolic calcium concentration (fluo-4 emission) during bath application” value (P2X7 receptors [4]) is reported as “sustained increase in cytosolic calcium concentration”, the “calcium elevation after washout” value (P2X7 receptors [4]; 20 min exposure followed by 20 min washout) is reported as “failed to recover after washout” and the “apoptosis (TUNEL-positive cells)” value (non-injured spinal cord) is reported as “induced apoptosis with a potency equivalent to ATP”. The “spiking (action potential firing) of spinal cord neurons” value (P2X7 receptors [2]) was “increase spiking rate; also recorded: induced high frequency spiking”, the “spiking rate versus BzATP dose” value (P2X7 receptors [2]; n=5-9) was “increases in a dose-dependent manner” and the Kd (P2X7 receptors [2]; read-out: kd (affinity, spiking response), spinal cord neurons) was 23.8 µM.
With `Nc1ncnc2c1ncn2[C@@H]1O[C@H](COP(=O)(O)CP(=O)(O)OP(=O)(O)O)[C@@H](O)[C@H]1O` [αβATP] the “apoptosis (TUNEL-positive cells)” value (non-injured spinal cord) was “not associated with significant injury”.
In the case of `Nc1ncnc2c1ncn2[C@@H]1O[C@H](COP(=O)(O)OP(=O)(O)OP(O)(O)=S)[C@@H](O)[C@H]1O` [ATPγS], the “apoptosis (TUNEL-positive cells)” value (non-injured spinal cord) is reported as “highest extent of apoptosis”.

Reference: US7923448B2, “Purine receptor inhibition as a therapeutic strategy in spinal cord and brain” (priority 2003, dated 2011)
